One data set concerns the target Histamine H1 receptor (Cavia porcellus, UniProt P31389). The data set is described as follows: Inhibition of the specific binding of [3H]pyrilamine to guinea pig cerebellum histamine H1 receptor. The data set is classed as tissue-based.
The nature of data set [1]: Affinity for TXA2 / PGH-2 receptors in guinea pig platelets, by inhibition of [3H]U-46619 binding.
Data set [2] has as its system Rattus norvegicus. Briefly: Compound concentration inhibiting 48 hr homologous passive cutaneous Anaphylaxis in rats peroral administration; No efficacy. The data set is classed as functional, organism-based.
The target of data set [3] is Histamine H1 receptor (Cavia porcellus) (UniProt P31389). Briefly: Inhibitory effect on the specific binding of [3H]pyrilamine to guinea pig cerebellum histamine H1 receptor at 1 uM. Type of data set: tissue-based.
Chain of Histamine H1 receptor (Cavia porcellus) (P31389 whole entry): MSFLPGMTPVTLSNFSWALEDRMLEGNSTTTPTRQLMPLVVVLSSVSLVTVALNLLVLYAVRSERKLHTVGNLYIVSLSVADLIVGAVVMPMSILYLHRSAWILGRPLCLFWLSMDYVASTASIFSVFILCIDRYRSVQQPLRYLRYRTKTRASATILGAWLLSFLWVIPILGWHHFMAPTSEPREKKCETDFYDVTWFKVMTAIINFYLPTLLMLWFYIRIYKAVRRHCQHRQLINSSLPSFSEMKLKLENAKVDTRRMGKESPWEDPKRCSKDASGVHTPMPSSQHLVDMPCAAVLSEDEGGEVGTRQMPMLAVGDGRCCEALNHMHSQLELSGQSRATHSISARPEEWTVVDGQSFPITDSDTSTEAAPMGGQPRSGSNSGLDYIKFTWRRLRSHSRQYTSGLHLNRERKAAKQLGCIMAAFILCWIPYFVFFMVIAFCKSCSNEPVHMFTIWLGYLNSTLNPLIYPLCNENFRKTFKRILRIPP
Data set [4] deals with Rattus norvegicus. The data set is described as follows: Compound concentration inhibiting 48 hr homologous passive cutaneous Anaphylaxis in rats peroral administration. The data set is classed as functional. The note with it: po.
A short description of data set [5]: Lethal concentration in 50% rats peroral administration of compound. As to conditions: rat, in vivo, po. The data set is classed as ADME, organism-based.
In data set [6] the target is T1, Muscarinic acetylcholine receptor M1 (Homo sapiens, UniProt P11229).
T1 sequence (P11229 whole entry): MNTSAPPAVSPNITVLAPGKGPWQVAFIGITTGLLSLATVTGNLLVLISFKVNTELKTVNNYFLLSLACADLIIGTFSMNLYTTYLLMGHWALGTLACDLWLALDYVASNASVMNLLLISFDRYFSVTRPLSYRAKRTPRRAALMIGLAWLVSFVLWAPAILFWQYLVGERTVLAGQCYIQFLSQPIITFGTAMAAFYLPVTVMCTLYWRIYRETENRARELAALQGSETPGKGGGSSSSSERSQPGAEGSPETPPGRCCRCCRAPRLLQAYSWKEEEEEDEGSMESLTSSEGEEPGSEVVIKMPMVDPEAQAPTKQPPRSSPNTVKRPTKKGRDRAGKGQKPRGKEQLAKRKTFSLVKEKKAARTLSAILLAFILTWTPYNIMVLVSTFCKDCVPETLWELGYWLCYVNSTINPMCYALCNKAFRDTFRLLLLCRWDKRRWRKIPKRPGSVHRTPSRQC
Briefly: Inhibition of muscarinic-1 receptor binding at a concentration of 10 uM; Showed negligible activities.

In data set [7] the target is 5-hydroxytryptamine receptor 5B (Rattus norvegicus, UniProt P35365). Briefly: Inhibition of serotonin receptor binding at a concentration of 10 uM; Showed negligible activities.
Chain of 5-hydroxytryptamine receptor 5B (P35365 whole entry): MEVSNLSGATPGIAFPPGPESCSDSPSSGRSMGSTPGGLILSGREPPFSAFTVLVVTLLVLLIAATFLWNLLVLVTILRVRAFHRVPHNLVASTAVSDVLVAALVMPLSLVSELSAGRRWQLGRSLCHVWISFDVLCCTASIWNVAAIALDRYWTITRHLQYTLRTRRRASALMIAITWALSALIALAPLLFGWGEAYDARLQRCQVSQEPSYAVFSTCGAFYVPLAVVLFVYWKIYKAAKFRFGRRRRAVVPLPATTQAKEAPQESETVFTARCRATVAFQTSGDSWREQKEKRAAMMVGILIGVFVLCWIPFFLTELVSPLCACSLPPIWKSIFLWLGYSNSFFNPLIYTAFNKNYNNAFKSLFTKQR
A further data set concerns the target Histamine H2 receptor (Rattus norvegicus, UniProt P25102). Briefly: Inhibition of H2 histamine receptor binding at a concentration of 10 uM; Showed negligible activities.
Another data set deals with D(2) dopamine receptor (Rattus norvegicus, UniProt P61169). The data set is described as follows: Inhibition of dopamine receptor binding at a concentration of 10 uM; Showed negligible activities.
Chain of D(2) dopamine receptor (P61169 whole entry): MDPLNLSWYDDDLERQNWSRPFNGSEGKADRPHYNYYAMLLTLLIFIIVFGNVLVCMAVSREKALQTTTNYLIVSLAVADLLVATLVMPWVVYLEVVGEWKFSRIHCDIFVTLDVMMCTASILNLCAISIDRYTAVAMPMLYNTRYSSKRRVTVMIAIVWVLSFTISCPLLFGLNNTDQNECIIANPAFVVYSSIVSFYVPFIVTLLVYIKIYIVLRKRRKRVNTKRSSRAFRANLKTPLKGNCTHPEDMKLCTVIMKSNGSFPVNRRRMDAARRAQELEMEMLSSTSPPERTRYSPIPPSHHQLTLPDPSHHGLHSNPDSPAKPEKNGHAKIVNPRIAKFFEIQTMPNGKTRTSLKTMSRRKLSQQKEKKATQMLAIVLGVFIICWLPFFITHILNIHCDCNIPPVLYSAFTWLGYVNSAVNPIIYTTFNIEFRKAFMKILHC
For data set [8], the target named is T2, Prostaglandin E2 receptor EP3 subtype (Homo sapiens, UniProt P43115).
T2 sequence (P43115 whole entry): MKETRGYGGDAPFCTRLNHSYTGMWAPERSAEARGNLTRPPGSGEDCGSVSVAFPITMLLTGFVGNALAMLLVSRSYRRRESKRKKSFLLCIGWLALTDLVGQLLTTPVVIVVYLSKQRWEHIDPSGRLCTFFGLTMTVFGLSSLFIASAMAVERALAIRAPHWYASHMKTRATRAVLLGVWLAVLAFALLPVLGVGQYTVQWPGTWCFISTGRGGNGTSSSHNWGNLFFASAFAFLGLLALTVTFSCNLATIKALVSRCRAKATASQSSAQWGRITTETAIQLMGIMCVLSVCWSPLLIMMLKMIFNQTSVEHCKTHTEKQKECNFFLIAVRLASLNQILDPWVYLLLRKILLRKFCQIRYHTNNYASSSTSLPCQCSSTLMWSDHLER
The data set is described as follows: Inhibition of prostaglandin E2 receptor binding at a concentration of 10 uM; Showed negligible activities.

A short description of data set [9]: Inhibition of prostaglandin I2 receptor binding at a concentration of 10 uM; Showed negligible activities.
The target in data set [10] is Platelet-activating factor receptor (Homo sapiens, UniProt P25105). Briefly: Inhibition of platelet-activating factor binding at a concentration of 10 uM; Showed negligible activities.
Chain of Platelet-activating factor receptor (P25105 whole entry): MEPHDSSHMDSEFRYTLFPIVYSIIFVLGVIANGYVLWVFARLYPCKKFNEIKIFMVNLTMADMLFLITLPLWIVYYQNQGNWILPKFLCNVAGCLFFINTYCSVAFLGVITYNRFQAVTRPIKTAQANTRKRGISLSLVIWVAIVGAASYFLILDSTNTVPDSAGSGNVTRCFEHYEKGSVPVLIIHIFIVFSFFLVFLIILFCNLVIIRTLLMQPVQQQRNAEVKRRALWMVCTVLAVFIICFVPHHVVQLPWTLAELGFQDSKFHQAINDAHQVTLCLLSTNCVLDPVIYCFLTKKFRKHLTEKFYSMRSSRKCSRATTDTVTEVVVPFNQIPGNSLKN
In data set [11] the test system is Alpha-2 adrenergic receptor (Rattus norvegicus). The data set is described as follows: Inhibition of alpha-2 adrenergic receptor binding at a concentration of 10 uM; Showed negligible activities.
The subject of data set [12] is Alpha-1 adrenergic receptor (Rattus norvegicus). The data set is described as follows: Inhibition of alpha-1 adrenergic receptor binding at a concentration of 10 uM; Showed negligible activities.
For the next data set, the species on record is Cavia porcellus. The data set is described as follows: Inhibitory effect on the specific binding of [3H]U-46619 to guinea pig platelets TXA2/PGH2 receptors at 1 uM.

Experimental findings from ChEMBL document CHEMBL1126591, “Dibenz[b,e]oxepin derivatives: novel antiallergic agents possessing thromboxane A2 and histamine H1 dual antagonizing activity. 1” (J Med Chem, 1993) are described below.

Calls of active or inactive are those of the source. The rule behind the calls is not given here. Some results are limits rather than exact numbers.

Chain of Histamine H1 receptor (P31389 whole entry): as the sequence (P31389 whole entry) above
Chain of Histamine H2 receptor (P25102 whole entry): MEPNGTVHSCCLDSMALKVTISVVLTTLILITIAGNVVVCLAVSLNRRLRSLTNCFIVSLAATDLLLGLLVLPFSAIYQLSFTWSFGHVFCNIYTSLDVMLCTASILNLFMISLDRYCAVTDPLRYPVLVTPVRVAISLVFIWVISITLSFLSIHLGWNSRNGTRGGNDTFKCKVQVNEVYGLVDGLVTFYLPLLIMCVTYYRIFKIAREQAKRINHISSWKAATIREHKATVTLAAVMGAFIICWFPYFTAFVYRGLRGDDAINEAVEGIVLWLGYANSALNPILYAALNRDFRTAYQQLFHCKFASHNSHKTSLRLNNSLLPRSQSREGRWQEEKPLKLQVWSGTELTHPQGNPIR

As to `O=C(O)Cc1ccc2c(c1)/C(=C\CN1CCC(Cc3ccccc3)CC1)c1ccccc1CO2`, the inhibition constant Ki (in general, a dissociation constant, usually derived from enzyme kinetics or from competition with a known ligand) is 0.015 µM at Histamine H1 receptor and 2.6 µM in [1].

Consider `O=C(O)CCc1ccc2c(c1)C(SCCN1CCC(Cc3ccccc3)CC1)c1ccccc1CO2` (centres undefined), for which the figures for the inhibition constant Ki (on Histamine H1 receptor; in [1]) were 0.012 µM and 0.34 µM, respectively.

For the compound `O=C(O)c1ccc2c(c1)C(SCCN1CCC(Cc3ccccc3)CC1)c1ccccc1CO2` (stereo in doubt; (-)12), the Ki at Histamine H1 receptor amounted to 0.74 µM; in data set [1] it was 0.042 µM.

As to `O=C(O)COc1ccc(CCNS(=O)(=O)c2ccccc2)cc1` [SULOTROBAN], the ED50 – broadly, the dose that gives a 50% effect, or the effect in half of the subjects – in the data set with Rattus norvegicus [2] is “inactive”. Further, in data set [3], the inhibition (commonly the percentage by which the read-out fell short of the control) is 0%.

In the data set with Rattus norvegicus [4], `O=C(O)Cc1ccc2c(c1)/C(=C/CN1CCC(Cc3ccccc3)CC1)c1ccccc1CO2` came in with an ED50 of 0.73 mg/kg. In addition, the LD50 (as a rule, the dose expected to kill half of the subjects tested) in [5] was over 1000 mg/kg. For the same compound, the inhibitory constant (Ki) entry (in [6]; in [7]; at Histamine H2 receptor; at D(2) dopamine receptor; in data set [8]; in [9]) was “Not Active” in each case. For the same compound, the Ki entry in data set [10] is “Not Active”; in data set [11], “Not Active”; on Histamine H1 receptor, 0.02 µM; in data set [12], “Not Active”; in data set [1], 0.74 µM.

Take `O=C(O)c1ccc2c(c1)/C(=C/CN1CCN(c3ccc(F)cc3)CC1)c1ccccc1CO2`: the inhibition in data set [3] is 3%. The inhibitory constant (Ki) in data set [1] is 2.3 µM.

As for `O=C(O)c1ccc2c(c1)C(SCCN1CCc3ccccc3C1)c1ccccc1CO2` (centres undefined), the figures for the Ki (at Histamine H1 receptor; in [1]) were 0.0069 µM and 0.24 µM, respectively.

With `CN(C)C/C=C1\c2ccccc2COc2ccc(CC(=O)O)cc21`, the 50% effect level in the data set on Rattus norvegicus [4] (ED50) was put at a dose of 0.077 mg/kg. Moreover, the Ki in data set [1] was over 1 µM.

As for `O=C(O)c1ccc2c(c1)C(SCCN1CCN(Cc3ccccc3)CC1)c1ccccc1CO2` (centres undefined), the Ki at Histamine H1 receptor was determined as 0.014 µM; in [1] it was 0.49 µM.

Regarding `O=C(O)c1ccc2c(c1)C(SCCN1CCN(c3ccccc3)CC1)c1ccccc1CO2` (centres undefined), the figures for the inhibition constant (Ki) (at Histamine H1 receptor; in [1]) were 0.047 µM and 0.21 µM, respectively.

As for `O=C(O)c1ccc2c(c1)C(SCCNS(=O)(=O)c1ccccc1)c1ccccc1CO2` (centres undefined), the inhibition in data set [3] stood at 0%. This compound had a Ki in data set [1] of 0.032 µM.

In the data set with Rattus norvegicus [4], `CN(C)CCSC1c2ccccc2COc2ccc(C(=O)O)cc21` (centres undefined) showed a 50% effective dose (ED50) of 0.92 mg/kg. The compound further gave an inhibition in the data set listed under Cavia porcellus of 18%. At Histamine H1 receptor, this compound returned a Ki of 0.009 µM.

Regarding `O=C(O)c1ccc2c(c1)C(SCCN1CCC(Cc3ccccc3)CC1)c1ccccc1CO2` (stereo in doubt; (+)12), the inhibition constant Ki is 0.0099 µM at Histamine H1 receptor and 14 µM in data set [1].

For `CC(C)(C(=O)O)c1ccc2c(c1)C(SCCN1CCC(Cc3ccccc3)CC1)c1ccccc1CO2` (centres undefined), the Ki came to 0.017 µM at Histamine H1 receptor and 1.6 µM in [1].

Consider `O=C(O)c1ccc2c(c1)C(SCCN1CCOCC1)c1ccccc1CO2` (centres undefined), for which the inhibition constant (Ki) amounted to 0.042 µM at Histamine H1 receptor and 1.9 µM in data set [1].

Take `O=C(O)c1ccc2c(c1)C(SCCN1CCC(Cc3ccccc3)CC1)c1ccccc1CO2` (racemic): the figures for the Ki (on Histamine H1 receptor; in data set [1]) were 0.018 µM and 0.14 µM, respectively.

Turning to `CN1CCC(=C2c3ccccc3CC(=O)c3sccc32)CC1` [KETOTIFEN], the ED50 with Rattus norvegicus [4] came to 4.8 mg/kg.

For `O=C(O)c1ccc2c(c1)C(SCCN1CCN(c3ccc(F)cc3)CC1)c1ccccc1CO2` (centres undefined), the Ki was determined as 0.041 µM at Histamine H1 receptor and 0.4 µM in data set [1].

In data set [1], `O=C(O)c1ccc2c(c1)/C(=C/Cn1cnc3ccccc31)c1ccccc1CO2` returned an inhibitory constant (Ki) of 0.015 µM.

As to `O=C(O)c1ccc2c(c1)C(SCCN1CCC(c3ccccc3)CC1)c1ccccc1CO2` (centres undefined), the results for the inhibition constant Ki (on Histamine H1 receptor; in data set [1]) were 0.02 µM and 0.99 µM, respectively.

In the case of `O=C(O)c1ccc2c(c1)C(SCCN1CCC(n3c(O)nc4ccccc43)CC1)c1ccccc1CO2` (centres undefined), the Ki is 0.5 µM at Histamine H1 receptor and 0.13 µM in data set [1].

Take `O=C(O)Cc1ccc2c(c1)C(SCCN1CCC(Cc3ccccc3)CC1)c1ccccc1CO2` (centres undefined): the figures for the Ki (on Histamine H1 receptor; in data set [1]) were 0.01 µM and 0.43 µM, respectively.
